# pIC50: −log10 of the molar value.
# Tests used:
# [1] = test system: healthy human fibroblasts; assay: Reduction in C26:0 LPC in healthy human fibroblasts in vitro; format: cell-based; conditions: Healthy 2 Fibroblast, half maximal reduction in C26:0 LPC, each number a separate measurement
# [2] = test system: wild-type male cynomolgus monkeys; assay: Reduction of blood C26:0 LPC in vivo in cynomolgus monkeys; design: species or system cynomolgus monkey; conditions: 30 mg/kg PO QD, after 7 days of dosing
# Procedure: A LC-MS/MS method of analyzing Lysophosphatidylcholine (LPC) in whole blood (dried blood spot card, DBS) and brain tissue samples was developed for measuring the abundance of saturated C16, C18, C20, C22, C24 and C26 LPC in DBS and brain samples. Whole blood was collected with Whatman DMPK-C DBS card at an approximate volume of 20 μL at each time point. Brain tissue was collected at the end point of the study. Samples were prepared and LC-MS/MS analysis was performed as described below.
# For DBS bioanalysis, the DBS card was punched at 3 mm in diameter using a semi-automated DBS card puncher. To each punched spot 200 μL of pure methanol was added. […]
# The supernatant obtained from each sample was injected into a LC-MS/MS system (Agilent Technologies, Santa Clara, Calif. and Applied Biosystems, Framingham, Mass.) for analysis. […] LPCs were detected by an AB Sciex API-6500 triple quadrupole MS with electrospray ionization in the mode of multiple reaction monitoring. Ions of Q1 were monitored at m/z of 496.6, 524.6, 552.6, 580.6, 608.6 and 636.6 for LPC 16:0, LPC 18:0, LPC 20:0, LPC 22:0, LPC 24:0 and LPC 26:0, respectively. […] C16:0 LPC levels were expressed as a concentration. […]
# The vehicle used was 2% TPGS and Compound 87 doses were prepared in 2% TPGS. […] DBS cards were stored at 4° C. until they could be analyzed for VLCFAs. DBS samples were prepared and analyzed using LC-MS/MS as described above.
# [3] = Metabolic intrinsic clearance in rat hepatocytes; format: in vitro ADME; conditions: Sprague Dawley, cryopreserved hepatocytes in suspension, pH 7.5, 0.5 million cells/mL, incubation for 4 hours
# Procedure: The metabolic intrinsic clearance (CLint) of Compound 87 was determined in human, monkey, dog, rat, and mouse hepatocytes. Cryopreserved human hepatocytes (Lot Hue50c), monkey hepatocytes (cynomolgus; Lot Cy328), dog hepatocytes (beagle, Lot Db235), rat hepatocytes (Sprague Dawley; NNH), and mouse hepatocytes (CD-1; Lot Mc522) were obtained from ThermoFisher (Paisley, UK). In separate experiments, compound 87 (1 μM) was incubated with hepatocytes from each species (0.5 million cells/mL, suspension) in Dulbecco's Modified Eagle's Medium (DMEM) supplemented with 4-(2-Hydroxyethyl)piperazine-1-ethanesulfonic acid (HEPES, 9 mM) and fructose (2.2 mM) (pH 7.5). Samples were quenched with acetonitrile and analyzed by LC-MS/MS. The mean CLint for Compound 87 in human, monkey, dog, rat, and mouse hepatocytes after incubation for 4 hours was determined to be ≤2.5, ≤2.5, 7.2, 23.6 and 10.7 μL/min/million cells. Based on these date, Compound 87 was low to moderately metabolized in hepatocytes in mouse, rat, dog, monkey, and human, and the rank order of stability at […] was approximately human>monkey>dog>mouse>rat. […] The metabolic stability of Compound 87 was not expected.
smiles,measurement,setting,value
"O=C(Nc1ccn(-c2ccnc(F)c2)n1)C1(c2ccccc2F)CC1 [Compound 87, 1-(2-fluorophenyl)-N-[1-(2-fluoro-4-pyridyl)pyrazol-3-yl]cyclopropanecarboxamide]",pIC50,[1],8.22
same,pIC50,"[1]; Homo sapiens, Fibroblast",8.05
same,reduction in blood C26:0 LPC,[2],~50%
same,hepatocyte CLint at 1 μM,[3],23.6 µL/min/1e6 cells

# From patent US20180251431A1 (VERTEX PHARMACEUTICALS INCORPORATED, priority 2016, published 2018)
